Results from patent US9487489B2, “Halogen-substituted pyrazole derivatives as pest-control agents” (BAYER CROPSCIENCE AKTIENGESELLSCHAFT, priority 2013, dated 2016).

Legend:
[1] = test system: larvae of the mustard beetle (Phaedon cochleariae); experiment: Phaedon cochleariae spray test (PHAECO); assay type: in vivo; conditions: Chinese cabbage leaf discs, after 7 days
Outline: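 Kill of mustard beetle larvae is read as % mortality 7 days after spraying. Spray liquid: active compound in acetone plus dimethylformamide, brought up with water holding 1000 ppm alkylaryl polyglycol ether emulsifier and diluted further in emulsifier-water.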

[2] = test system: caterpillars of the armyworm (Spodoptera frugiperda); experiment: Spodoptera frugiperda spray test (SPODFR); assay type: in vivo; conditions: maize leaf discs, after 7 days
Outline: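 Percent kill read at day 7 on caterpillar-infested maize leaf discs. Discs were first sprayed with aqueous emulsifier-containing (1000 ppm) preparations made from acetone/dimethylformamide solutions, and dried. Scale: 0% none dead, 100% all dead.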

[3] = test system: green peach aphid (Myzus persicae); experiment: Myzus persicae spray test (MYZUPE); assay type: in vivo; conditions: application rate 500 g/ha; Chinese cabbage leaf discs; after 6 days
Outline: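 Chinese cabbage leaf discs infested with all aphid stages sprayed with compound in acetone/DMF with alkylaryl polyglycol ether emulsifier in water. Efficacy (% aphids killed; 100% all dead, 0% none) scored after 6 days.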

[4] = test system: cattle ticks (Boophilus microplus) Parkhurst strain, SP-resistant; experiment: Boophilus microplus dip test (BOOPMI Dip); assay type: in vivo; conditions: application rate 100 ppm, assessed after 7 days
Outline: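 Adult engorged female SP-resistant Parkhurst ticks (8–10) were fully immersed in compound diluted in water from a DMSO solution, then kept in a climate-controlled room. After 7 days, fertile egg-laying was scored, with larval hatching checked at about 42 days; 100% efficacy means no fertile eggs.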

[5] = test system: engorged adult female cattle ticks (Boophilus microplus); experiment: Boophilus microplus injection test (BOOPMI Inj); assay type: in vivo; conditions: application rate 20 μg/animal; injection into abdomen; assessed after 7 days
Outline: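 Efficacy is read at 7 days as fertile egg laying (100% = no fertile eggs laid; 0% = all eggs fertile), with eggs of unclear fertility stored until larvae hatch at about 42 days. Five engorged adult females per dose each receive an abdominal injection of 1 μl compound dissolved in DMSO.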

[6] = test system: bont tick nymphs (Amblyomma hebraeum); conditions: after 48 h
[7] = test system: Tick nymphs (Amblyomma hebraeum); experiment: Amblyomma hebraeum test (AMBYHE), tick nymphs immersed; assay type: in vivo; conditions: application rate 100 ppm; immersed one minute; after 42 days
Method: A. Amblyomma hebaraeum Test (AMBYHE)
Solvent: dimethyl sulphoxide
To produce a suitable preparation of active compound, 10 mg of active compound are mixed with 0.5 ml of dimethyl sulfoxide, and the concentrate is diluted with water to the desired concentration.
Tick nymphs (Amblyomma hebraeum) are placed into perforated plastic beakers and immersed in the desired concentration for one minute. The ticks are transferred on filter paper into a Petri dish and stored in a climate-controlled cabinet.
After 42 days, the kill in % is determined. 100% means that all of the ticks have been killed; 0% means that none of the ticks have been killed.

[8] = test system: adult houseflies (Musca domestica); experiment: Musca domestica test (MUSCDO); assay type: in vivo; conditions: application rate 100 ppm; after 2 days
Outline: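 Groups of 10 adult Musca domestica exposed to a sugar-soaked sponge treated with the water-diluted DMSO preparation of compound at the chosen concentration. Percent kill read at day 2, where 0% means no flies killed and 100% all killed.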

[9] = test system: adult cat fleas (Ctenocephalides felis); experiment: Ctenocephalides felis in vitro contact test with adult cat fleas (T1); conditions: after 48 h
Outline: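 Adult cat fleas (Ctenocephalides felis), 5-10 per tube, were exposed to the inner surface of 25 ml test tubes coated with compound in acetone. Tubes were incubated lying flat under ambient conditions. Efficacy was then read by standing tubes upright and knocking the fleas to the floor. Fleas that stayed motionless or moved uncoordinatedly counted as dead or moribund, where 100% means all fleas dead or moribund and 0% means none harmed.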

[10] = test system: adult dog ticks (Rhipicephalus sanguineus); experiment: Rhipicephalus sanguineus in vitro contact test with adult brown dog ticks (T2); conditions: after 48 h
Outline: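 Acetone solutions coated onto test tube walls and floor, giving 5 μg/cm^2 at 900 ppm. Five to ten adult ticks held per tube in the dark at room temperature for 48 h, then heated at 45-50° C for up to 5 min; efficacy is the percentage of dead or moribund ticks unable to climb away.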

[11] = test system: L1 larvae of the Australian sheep blowfly (Lucilia cuprina); experiment: Lucilia cuprina test (LUCICU); assay type: in vivo; conditions: application rate 100 ppm; after 2 days
Outline: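 Percent mortality read at 2 days; 100% = all larvae killed, 0% = none. Test compound, predissolved in DMSO and water-diluted to the wanted level, was mixed into minced horsemeat holding roughly 20 first-instar larvae.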

[12] = test system: adult castor bean ticks (Ixodes ricinus); experiment: Ixodes ricinus in vitro contact test with adult castor bean ticks (T3); conditions: application rate 5 μg/cm^2; after 48 h
Method: T3. Ixodes ricinus-in vitro Contact Tests with Adult Castor Bean Ticks
For the coating of the test tubes, initially 9 mg of active compound are dissolved in 1 ml of acetone p.a. and then diluted with acetone p.a. to the desired concentration. By turning and rocking on an orbital shaker (2 h of rocking rotation at 30 rpm), 250 μl of the solution are distributed homogeneously on the internal walls and the floor of a 25 ml test tube. At 900 ppm active compound solution and 44.7 cm^2 internal surface, an area dose of 5 μg/cm^2 is achieved for homogeneous distribution.
After evaporation of the solvent, the tubes are populated with 5-10 adult castor bean ticks (Ixodes ricinus), sealed with a perforated plastic lid and incubated in a horizontal position in the dark at 22° C. and 90% humidity in a climate-controlled cabinet. After 48 h, the efficacy is determined. To this end, the ticks are knocked to the floor of the tube and incubated on a hotplate at 45-50° C. for at most 5 min. Ticks which remain motionless on the floor or move in an uncoordinated manner such that they are not able to deliberately avoid the heat by climbing upwards are considered to be dead or moribund.
An efficacy of 100% means that all ticks were dead or moribund. 0% efficacy means that none of the ticks had been damaged.

[13] = test system: adult cat fleas (Ctenocephalides felis); experiment: Ctenocephalides felis oral test (CTECFE); assay type: in vivo; conditions: application rate 100 ppm in citrated cattle blood; after 2 days
Outline: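 Mortality read at 2 days as percent of fleas killed. Compound predissolved in DMSO, diluted into citrated cattle blood and offered to roughly 20 unfed adult C. felis via parafilm membrane feeder.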

[14] = test system: greenhouse red spider mite (Tetranychus urticae); experiment: Tetranychus urticae spray test, OP-resistant (TETRUR); assay type: in vivo; conditions: bean leaf discs, after 6 days
Outline: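 Percent kill, scored 6 days post-spray (0% = none dead, 100% = all dead), on Phaseolus vulgaris leaf discs infested with every life stage of the OP-resistant spider mite. Compound dissolved in acetone plus DMF, diluted to test concentration with emulsifier-containing water (1000 ppm).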

[15] = test system: southern root-knot nematode (Meloidogyne incognita); experiment: Meloidogyne incognita test (MELGIN); assay type: in vivo; conditions: application rate 20 ppm; lettuce; after 14 days
Method: K. Meloidogyne incognita Test (MELGIN)
Solvent: 125.0 parts by weight of acetone
To prepare a suitable active compound preparation, 1 part by weight of active compound is mixed with the stated amount of solvent and the concentrate is diluted with water to the desired concentration.
Vessels are filled with sand, active compound solution, an egg/larvae suspension of the southern root-knot nematode (Meloidogyne incognita) and lettuce seeds. The lettuce seeds germinate and the plants develop. On the roots, galls are formed.
After 14 days, the nematicidal efficacy in % is determined by the formation of galls. 100% means that no galls have been found; 0% means that the number of galls on the treated plants corresponds to the untreated control.

[16] = logP determination by HPLC on a reversed-phase column (C18), EEC Directive 79/831 Annex V.A8; assay type: physicochemical; conditions: HPLC on reversed-phase column (C18), acetonitrile/water with formic acid, EEC Directive 79/831 Annex V.A8
Outline: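 Per EEC 79/831 Annex V.A8, values derive from HPLC retention at 2.0 ml/min and 55° C on a 50*4.6 C18 column. The 10→95% acetonitrile gradient (0.1%/0.09% formic acid) lasted 4.25 min plus a 1.25 min hold; mass detection was by MSD.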

Structure (SMILES)	efficacy in % ([1]; application rate 500 g/ha)	efficacy in % ([2]; application rate 500 g/ha)	efficacy in % [3]	efficacy (laying of fertile eggs) [4]	efficacy (laying of fertile eggs) [5]	efficacy (dead or moribund ticks) [6]	efficacy (kill in %) [7]	efficacy (kill in %) [8]	efficacy (dead or moribund fleas) ([9]; application rate 1 μg/cm^2)	efficacy (dead or moribund fleas) ([9]; application rate 5 μg/cm^2)	efficacy (dead or moribund ticks) ([10]; application rate 1 μg/cm^2)	efficacy (dead or moribund ticks) ([10]; application rate 5 μg/cm^2)	efficacy (kill in %) [11]	efficacy (kill in %) [13]	efficacy in % ([14]; application rate 500 g/ha)	nematicidal efficacy in % (formation of galls) [15]	also measured
Cn1nc(C(F)(F)C(F)(F)F)c(C(F)(F)F)c1-n1cc(-c2cc(F)c(F)c(C(=O)NC3(C#N)CC3)c2)cn1 [Ic-47]	100%	100%	100%	100%	100%	100%	100%	100%	100%	100%	100%	100%	100%	100%	–	–	efficacy (dead or moribund ticks) [12]: 100%
Cc1ncc(-c2cnn(-c3c(C(F)(F)F)c(C(F)(F)C(F)(F)F)nn3C)c2)cc1C(=O)NC1(C#N)CC1 [Ic-85]	100%	100%	100%	100%	100%	–	100%	100%	100%	100%	100%	100%	100%	100%	100%	–	–
Cc1cc(-c2cnn(-c3c(C(F)(F)F)c(C(F)(F)C(F)(F)F)nn3C)c2)cc(C(=O)NC2(C#N)CC2)c1Cl [Ic-91]	100%	100%	100%	100%	100%	–	100%	100%	100%	100%	–	80%	100%	100%	100%	–	–
Cn1nc(C(F)(F)C(F)(F)F)c(C(F)(F)F)c1-n1cc(-c2cnc(Cl)c(C(=O)NC3(C#N)CC3)c2)cn1 [Ic-83]	–	–	–	100%	100%	100%	100%	100%	100%	100%	100%	100%	100%	100%	–	–	efficacy in % ([1]; application rate 100 g/ha): 100%; efficacy in % ([2]; application rate 100 g/ha): 100%; efficacy (dead or moribund ticks) [12]: 100%; efficacy in % ([14]; application rate 100 g/ha): 100%
Cn1nc(C(F)(F)C(F)(F)F)c(C(F)(F)F)c1-n1cc(-c2cc(C(=O)NC3CC3)c(F)cc2Cl)cn1 [Ic-49]	100%	100%	90%	100%	100%	100%	100%	100%	100%	100%	100%	100%	100%	100%	90%	–	–
Cn1nc(C(F)(F)C(F)(F)F)c(C(F)(F)F)c1-n1cc(-c2ccc(Cl)c(C(=O)NCC(N)=O)c2)cn1 [Ic-156]	100%	100%	90%	–	90%	–	–	–	–	–	–	–	–	100%	100%	90%	–
Cn1nc(C(F)(F)C(F)(F)F)c(C(F)(F)F)c1-n1cc(-c2cc(Cl)c(Cl)c(C(=O)NC3(C#N)CC3)c2)cn1 [Ic-95]	100%	100%	90%	100%	100%	100%	100%	100%	100%	100%	100%	100%	100%	100%	100%	–	–
CSCC1CCC1NC(=O)c1cc(-c2cnn(-c3c(C(F)(F)F)c(C(F)(F)C(F)(F)F)nn3C)c2)ccc1Cl (stereo not shown) [Ic-120]	–	–	–	–	–	–	–	–	–	–	–	–	–	–	–	90%	efficacy in % ([1]; application rate 100 g/ha): 83%; logP [16]: 4.56; efficacy in % ([14]; application rate 100 g/ha): 100%
Cn1nc(C(F)(F)C(F)(F)F)c(C(F)(F)F)c1-n1cc(-c2ccc(Cl)c(C(=O)NS(C)(=O)=O)c2)cn1 [Ic-26]	–	–	–	–	–	–	–	–	–	–	–	–	–	–	–	90%	logP [16]: 3.58
